The values that follow are results of earlier work, collected in patent US20120238571A1, “INDAZOLE DERIVATIVES AS PI 3-KINASE” (Glaxo Group Limited, priority 2009, published 2012).

Where two headings read alike, the source gives them in different places.

The target in one data set is CK2 protein kinase (Homo sapiens, UniProt P68400).
CK2 protein kinase, sequence (P68400 whole entry): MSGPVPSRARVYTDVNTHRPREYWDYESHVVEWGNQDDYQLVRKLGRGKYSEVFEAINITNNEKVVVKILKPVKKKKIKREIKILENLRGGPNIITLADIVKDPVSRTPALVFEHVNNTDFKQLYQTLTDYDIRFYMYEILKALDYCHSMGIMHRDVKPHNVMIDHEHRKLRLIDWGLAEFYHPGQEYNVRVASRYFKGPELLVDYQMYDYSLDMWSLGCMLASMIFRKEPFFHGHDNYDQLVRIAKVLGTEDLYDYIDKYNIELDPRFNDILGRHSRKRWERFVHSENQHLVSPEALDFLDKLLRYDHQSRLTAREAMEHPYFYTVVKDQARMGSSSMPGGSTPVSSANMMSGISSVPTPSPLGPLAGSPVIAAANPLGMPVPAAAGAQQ

In the case of `O=c1cc(N2CCOCC2)oc2c(-c3ccccc3)cccc12` [LY294002], the 50% inhibitory concentration (IC50) in the data set with Class I PI3-kinases (each of the Class I PI3-kinases, Fruman et al. 1998, read-out: IC50 against each of these PI3-kinases) is 15 to 20 µM; at CK2 protein kinase, 5 to 10 µM.

In the case of `COC[C@H]1OC(=O)c2coc3c2[C@@]1(C)C1=C(C3=O)[C@@H]2CCC(=O)[C@@]2(C)C[C@H]1OC(C)=O` [wortmannin], the IC50 in the data set with Class I PI3-kinases (each of the four Class I PI3-kinases, read-out: IC50 against each of the various Class I PI3-kinases) was 0.001 to 0.01 µM.

In general, IC50 refers to the concentration at which inhibition is half-maximal.
